In ChEMBL document CHEMBL1201862, “PubChem BioAssay data set” (2004):
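How tested: cells in 96-well plates exposed to compound for 48 hours at five concentrations. GI50 = concentration required for 50% inhibition of growth.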 Activity calls are given as the source filed them. Rule as the data show it: active = GI50 up to about 1.1 µM and inactive = higher.

How the values were obtained:
Test in all cases: NCI anticancer screen, dose series, 48 h
[1] = test system: A498
[2] = test system: ACHN
[3] = test system: HCC 2998
[4] = test system: HCT-116
[5] = test system: KM12
[6] = test system: MDA-MB-231
[7] = test system: Malme-3M
[8] = test system: NCI-H226
[9] = test system: NCI-H23
[10] = test system: NCI/ADR-RES
[11] = test system: OVCAR-3
[12] = test system: RXF 393
[13] = test system: SN12C
[14] = test system: SW-620
[15] = test system: UO-31
[16] = test system: K562
[17] = test system: SK-MEL-2
[18] = test system: CCRF-CEM

Measured: GI50

Cc1ccc(S(=O)(=O)N/N=C2/C3CC4CCC2C4C3)cc1 (stereo not given)
inactive: [1] > 100 µM | [2] > 100 µM | [3] > 100 µM | [4] > 100 µM | [5] > 100 µM | [6] > 100 µM | [7] > 100 µM | [8] > 100 µM | [9] > 100 µM | [10] > 100 µM | [11] > 100 µM | [12] > 100 µM | [13] > 100 µM | [14] > 100 µM | [15] > 100 µM

C[N+]1(CC[N+]2(C)CCCC2c2cccnc2)CCCC1c1cccnc1 (stereo not given)
inactive: [1] > 100 µM | [2] > 100 µM | [3] > 100 µM | [4] 96.6 µM | [16] 96.4 µM | [5] > 100 µM | [6] > 100 µM | [7] 59.3 µM | [9] > 100 µM | [10] > 100 µM | [11] > 100 µM | [12] > 100 µM | [17] > 100 µM | [13] > 100 µM | [14] > 100 µM | [15] > 100 µM

Clc1ccc(CSC2=NCCN2)cc1Cl
inactive: [1] 21.3 µM | [2] 15 µM | [18] 5.36 µM | [3] 15.2 µM | [4] 14.9 µM | [16] 13.5 µM | [5] 16.9 µM | [6] 11.8 µM | [7] 13 µM | [8] 20.7 µM | [9] 15.6 µM | [10] 20.1 µM | [11] 14.1 µM | [12] 14.2 µM | [13] 15.2 µM | [14] 16.2 µM | [15] 11.4 µM

NN/C(=N\S(=O)(=O)c1cc2ccccc2o1)Nc1ccc(Cl)cc1
inactive: [1] > 100 µM | [2] > 100 µM | [18] 2.02 µM | [4] > 100 µM | [16] > 100 µM | [5] > 100 µM | [6] 67.9 µM | [7] > 100 µM | [8] > 100 µM | [9] > 100 µM | [10] > 100 µM | [11] 36.6 µM | [12] 20.7 µM | [17] > 100 µM | [13] > 100 µM | [14] > 100 µM | [15] > 100 µM

CCCCOc1ccc(S(=O)(=O)/N=C(\NN)Nc2ccc(Cl)cc2)cc1
inactive: [1] 47.1 µM | [2] 69.7 µM | [18] 20 µM | [4] 20 µM | [16] 31.7 µM | [5] 32.7 µM | [6] 20.2 µM | [7] 26.9 µM | [8] 29.6 µM | [9] 36.1 µM | [10] 24.5 µM | [11] 20.8 µM | [12] 16.7 µM | [17] > 100 µM | [13] 19.2 µM | [14] 29.4 µM | [15] 18.2 µM

C[C@]12CCC(O)CC1=CC[C@@H]1[C@@H]2CC[C@]2(C)C(O)[C@H](n3ccnc3)C[C@@H]12 (stereo not given in full)
inactive: [1] > 100 µM | [2] 62.2 µM | [18] 17.9 µM | [4] 59.4 µM | [16] 12 µM | [5] 56.2 µM | [6] > 100 µM | [7] > 100 µM | [8] > 100 µM | [9] 19.5 µM | [10] > 100 µM | [11] 72.4 µM | [12] 55.1 µM | [17] 52.1 µM | [13] > 100 µM | [14] > 100 µM | [15] > 100 µM

CCCCOCn1c(=O)[nH]c(=O)c2cc(Br)ccc21
inactive: [1] 54.6 µM | [2] 14.3 µM | [18] 59.4 µM | [3] > 100 µM | [4] 38.5 µM | [16] 51.8 µM | [5] 36.5 µM | [6] 33.8 µM | [8] 12.6 µM | [10] 19.1 µM | [11] 45.9 µM | [12] 42.3 µM | [17] 40.2 µM | [13] 48.1 µM | [14] > 100 µM | [15] 18.5 µM
